The values below come from PubChem BioAssay AID248 (DTP/NCI, 2004).

Where “and” joins values, the source holds several entries; their conditions need not be identical. Equal values may be shown once. Toxic doses and inconclusive results are not listed.

The assay deals with L1210 leukemia ip in BDF1 mice, survival T/C. Nature of the assay: NCI In Vivo Anticancer Drug Screen. Data for tumor model L1210 Leukemia (intraperitoneal) in B6D2F1 (BDF1) mice. Particulars: endpoint: mean survival time, higher = longer survival. The essentials: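 Transplantable tumor model; survival measured in treated vs vehicle control mice. Value = treated/control.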
Setting [1] is: dose: 100.0 mg/kg/injection, schedule: Q01DX001 (ip), vehicle: saline.
The mark [2] stands for this setting: dose: 200.0 mg/kg/injection, schedule: Q01DX001 (ip), vehicle: saline.
The mark [3] stands for this setting: dose: 400.0 mg/kg/injection, schedule: Q01DX001 (ip), vehicle: saline.
[4] abbreviates: dose: 100.0 mg/kg/injection, schedule: Q01DX009 (ip), vehicle: saline.
Setting [5] is: dose: 100.0 mg/kg/injection, schedule: Q04DX003 (ip), vehicle: saline.
Where [6] appears, read: dose: 200.0 mg/kg/injection, schedule: Q01DX009 (ip), vehicle: saline.
[7] abbreviates: dose: 200.0 mg/kg/injection, schedule: Q04DX003 (ip), vehicle: saline.
Where [8] appears, read: dose: 400.0 mg/kg/injection, schedule: Q04DX003 (ip), vehicle: saline.
Where [9] appears, read: dose: 100.0 mg/kg/injection, schedule: Q01DX009 (ip), vehicle: saline with Tween-80.
[10] abbreviates: dose: 200.0 mg/kg/injection, schedule: Q01DX009 (ip), vehicle: saline with Tween-80.
Setting [11] is: dose: 100.0 mg/kg/injection, schedule: Q01DX009 (ip), vehicle: Klucel (hydroxypropylcellulose) (HPC).
[12] abbreviates: dose: 100.0 mg/kg/injection, schedule: Q04DX003 (ip), vehicle: Klucel (hydroxypropylcellulose) (HPC).
The mark [13] stands for this setting: dose: 200.0 mg/kg/injection, schedule: Q01DX009 (ip), vehicle: Klucel (hydroxypropylcellulose) (HPC).
Setting [14] is: dose: 200.0 mg/kg/injection, schedule: Q04DX003 (ip), vehicle: Klucel (hydroxypropylcellulose) (HPC).
The mark [15] stands for this setting: dose: 400.0 mg/kg/injection, schedule: Q01DX009 (ip), vehicle: Klucel (hydroxypropylcellulose) (HPC).
Where [16] appears, read: dose: 400.0 mg/kg/injection, schedule: Q04DX003 (ip), vehicle: Klucel (hydroxypropylcellulose) (HPC).
Where [17] appears, read: dose: 50.0 mg/kg/injection, schedule: Q01DX001 (ip), vehicle: saline.

In the case of `Cc1cc(NC(=O)Nc2cccc(C3=NCCN3)c2)ccc1NC(=O)Nc1cccc(C2=NCCN2)c1`, the T/C runs as follows: (dose: 15.0 mg/kg/injection, schedule: Q01DX Z (ip), vehicle: saline) 93 % of control; (dose: 30.0 mg/kg/injection, schedule: Q01DX Z (ip), vehicle: saline) 103 % of control; (dose: 60.0 mg/kg/injection, schedule: Q01DX Z (ip), vehicle: saline) 109 % of control; (dose: 240.0 mg/kg/injection, schedule: Q01DX Z (ip), vehicle: saline) 171 % of control; (dose: 480.0 mg/kg/injection, schedule: Q01DX Z (ip), vehicle: saline) 192 % of control.
Turning to `CNS(=O)(=O)c1ccccc1C(=N)c1ccccc1`, the T/C by setting is: under setting [1], 97 % of control; under setting [2], 97 % of control; under setting [3], 100 % of control.
With `CCP(=O)(CC)CC`, the T/C (dose: 1000.0 mg/kg/injection, schedule: Q01DX Z (ip), vehicle: saline) was 104 % of control and the T/C (dose: 2000.0 mg/kg/injection, schedule: Q01DX Z (ip), vehicle: saline) was 101 % of control.
Take `CC(C)CN(CC(=O)N1CC(=O)Nc2ccccc21)CC(C)C`: the T/C by setting is: under setting [4], 94 % of control; under setting [5], 95 % of control; under setting [6], 87 % of control; under setting [7], 95 % of control; under setting [8], 92 % of control.
For the molecule `O=C(O)c1cccc(NC(C(=O)c2ccccc2)c2ccccc2)c1` (stereo unspecified), the T/C runs as follows: (dose: 50.0 mg/kg/injection, schedule: Q01DX001 (ip), vehicle: Klucel (hydroxypropylcellulose) (HPC)) 102 % of control; (dose: 100.0 mg/kg/injection, schedule: Q01DX001 (ip), vehicle: Klucel (hydroxypropylcellulose) (HPC)) 102 % of control; (dose: 200.0 mg/kg/injection, schedule: Q01DX001 (ip), vehicle: Klucel (hydroxypropylcellulose) (HPC)) 102 % of control.
Regarding `O=C(Nc1cccnc1)C1=Cc2ccccc2OC1`, the T/C is 95 % of control under setting [9]; 103 % of control (dose: 100.0 mg/kg/injection, schedule: Q04DX003 (ip), vehicle: saline with Tween-80); 94 % of control under setting [10]; 98 % of control (dose: 200.0 mg/kg/injection, schedule: Q04DX003 (ip), vehicle: saline with Tween-80); 105 % of control (dose: 400.0 mg/kg/injection, schedule: Q01DX009 (ip), vehicle: saline with Tween-80); 107 % of control (dose: 400.0 mg/kg/injection, schedule: Q04DX003 (ip), vehicle: saline with Tween-80).
Take `O=C(N/N=C\C=C\c1ccccc1)c1ccc(Cl)cc1`: the T/C is 93 % of control (dose: 50.0 mg/kg/injection, schedule: Q01DX009 (ip), vehicle: saline with Tween-80); 89 % of control under setting [9]; 86 % of control under setting [10].
On to `COc1ccc(CCn2ccc(C(=O)O)cc2=O)cc1OC`, for which the T/C is 89 % of control under setting [11]; 91 % of control under setting [12]; 101 % of control under setting [13]; 94 % of control under setting [14]; 99 % of control under setting [15]; 105 % of control under setting [16].
Consider `CCCCCC(OCC)(OCC)OCC`, for which the T/C runs as follows: under setting [11], 95 % of control; under setting [12], 104 % of control; under setting [13], 96 % of control; under setting [14], 93 % of control; under setting [15], 92 % of control; under setting [16], 93 % of control.
Regarding `Nc1ccc([N+](=O)[O-])c2ccccc12`, the T/C by setting is: (dose: 50.0 mg/kg/injection, schedule: Q01DX001 (ip), vehicle: carboxymethylcellulose (CMC)) 87 % of control; (dose: 100.0 mg/kg/injection, schedule: Q01DX001 (ip), vehicle: carboxymethylcellulose (CMC)) 93 % of control; (dose: 200.0 mg/kg/injection, schedule: Q01DX001 (ip), vehicle: carboxymethylcellulose (CMC)) 98 % of control; (dose: 400.0 mg/kg/injection, schedule: Q01DX001 (ip), vehicle: carboxymethylcellulose (CMC)) 87 % of control.
With `CNC(=O)NO`, the T/C by setting is: (dose: 50.0 mg/kg/injection, schedule: Q01DX Z (ip), vehicle: water) 112 % of control; (dose: 200.0 mg/kg/injection, schedule: Q01DX Z (ip), vehicle: water) 97 % of control; (dose: 400.0 mg/kg/injection, schedule: Q01DX Z (ip), vehicle: water) 115 % of control.
Turning to `O=C(NCCCCCCCCCCNC(=O)C(Cl)Cl)C(Cl)Cl`, the T/C was 98 % of control under setting [12], 90 % of control under setting [14] and 105 % of control under setting [16].
In the case of `O=C1NC(=O)C(c2cccc(F)c2)N1` (stereo unspecified), the T/C reads like this: under setting [17], 97 % of control; under setting [1], 94 % of control; under setting [2], 94 % of control; under setting [3], 111 % of control.
Consider `CCCCCCCCCCCCOP(N)(=O)OCCCCCCCCCCCC`, for which the T/C was 90 % of control (dose: 50.0 mg/kg/injection, schedule: Q01DX009 (ip), vehicle: saline); 88 % of control under setting [4]; 94 % of control under setting [5]; 88 % of control under setting [6]; 90 % of control under setting [7].
`CC1(C)[C@@H]2CC[C@@]1(CS(=O)(=O)O)C(=O)C2`: the T/C (dose: 100.0 mg/kg/injection, schedule: Q04DX002 (ip), vehicle: other) is 95 % of control and the T/C (dose: 200.0 mg/kg/injection, schedule: Q04DX002 (ip), vehicle: other) is 92 % of control.
Take `COc1c(C(C)(C)C)cc([N+](=O)[O-])c(C)c1[N+](=O)[O-]`: the T/C under setting [11] was 98 % of control; the T/C under setting [12] was 103 % of control; the T/C under setting [13] was 103 % of control; the T/C under setting [14] is 102 % of control; the T/C under setting [15] is 96 % of control; the T/C under setting [16] is 94 % of control.
Turning to `c1ccc2c3c(ccc2c1)Sc1ccc2ccccc2c1N3`, the T/C is, setting by setting: under setting [4], 102 % of control; under setting [5], 97 % of control; under setting [6], 98 % of control; under setting [7], 111 % of control; (dose: 400.0 mg/kg/injection, schedule: Q01DX009 (ip), vehicle: saline) 93 % of control; under setting [8], 95 % of control.
`Cc1ccc(-n2c(=O)[nH]c3c(c2=O)C(c2ccc(Cl)cc2)C(C)(C)O3)cc1` (stereo unspecified): the T/C is 97 % of control (dose: 12.5 mg/kg/injection, schedule: Q01DX001 (ip), vehicle: saline); 107 % of control (dose: 12.5 mg/kg/injection, schedule: Q04DX003 (ip), vehicle: saline); 101 % of control (dose: 25.0 mg/kg/injection, schedule: Q04DX003 (ip), vehicle: saline); 96 % of control under setting [17]; 90 % of control (dose: 50.0 mg/kg/injection, schedule: Q04DX003 (ip), vehicle: saline); 97 % of control (dose: 75.0 mg/kg/injection, schedule: Q04DX003 (ip), vehicle: saline). For the same molecule, the T/C was 94 % of control (dose: 113.0 mg/kg/injection, schedule: Q04DX003 (ip), vehicle: saline) and 95 % of control (dose: 169.0 mg/kg/injection, schedule: Q04DX003 (ip), vehicle: saline).
With `C(=C\CN(Cc1ccccc1)Cc1ccccc1)/CN(Cc1ccccc1)Cc1ccccc1`, the T/C is, setting by setting: under setting [12], 90 % of control; under setting [14], 87 % of control; under setting [16], 87 % of control.
In the case of `O=C(O)CNCc1ccc(Cl)cc1`, the T/C reads like this: (dose: 12.5 mg/kg/injection, schedule: Q01DX009 (ip), vehicle: water) 104 % of control; (dose: 25.0 mg/kg/injection, schedule: Q01DX009 (ip), vehicle: water) 96 % of control; (dose: 50.0 mg/kg/injection, schedule: Q01DX009 (ip), vehicle: water) 104 % of control and 91 % of control; (dose: 100.0 mg/kg/injection, schedule: Q01DX009 (ip), vehicle: water) 100 % of control; (dose: 100.0 mg/kg/injection, schedule: Q01DX Z (ip), vehicle: saline) 111 % of control; (dose: 100.0 mg/kg/injection, schedule: Q04DX003 (ip), vehicle: water) 88 % of control. The T/C is 100 % of control (dose: 200.0 mg/kg/injection, schedule: Q01DX Z (ip), vehicle: saline) and 92 % of control (dose: 200.0 mg/kg/injection, schedule: Q04DX003 (ip), vehicle: water).
